# Reference: US20140242012A1, “METHODS FOR TREATING UV-DAMAGED SKIN AND SCC TUMORS AND FOR REMOVING TATTOOS WITH TOPICAL INGENOL MEBUTATE” (LEO Laboratories Limited, priority 2011, published 2014)
# Assays:
# B16 = assay: In vitro cytotoxicity assay (SRB); assay type: cell-based, murine; details: 48 h, DMSO
# Method: (§1) UV-13.1 and T7 cells are cultured in DMEM medium (Gibco Catalogue number 11960) supplemented with sodium-pyruvate (Gibco Catalogue number 11360-070, final concentration 1 mM), L-glutamine (Gibco, catalogue number 25030-081, final concentration 2 mM) and penicillin/streptomycin (Catalogue number 490269, diluted 1:100). B 16 cells are cultured in RPMI (QIMR) supplemented with 10% FBS and penicillin/streptomycin.
# (§2) Cells are seeded with in 10,000 per microtitre wells in 100 μl of culture medium and incubated overnight to enable them to adhere to the bottom of the well. Quadruplicate wells aere treated with ingenol mebutate (PEP005 #250803 final concentration 0.232-232 μM) dissolved in DMSO (Sigma, D2650). […] Included in the assay were cells treated with vehicle alone (1% DMSO) and control. The treated cells are incubated at 37° C. for 48 h. Medium from the microtitre plates is tipped out; the wells are washed once with PBS to remove any excess FBS and then are fixed with methylated spirits for a minimum of 5 min. The methylated spirit is tipped off and the wells are washed once with tap water. A volume of 50 μl of sulforhodmain B (SRB) solution (0.4% SRB in 1% acetic acid) is added to each well and the plates are incubated at room temperature for a minimum of 15 min. The SRB solution is tipped off and the plates are washed twice with tap water and then twice with 1% acetic acid. The final wash of acetic acid is tapped out of the plate and 100 μl of 10 mM Tris base (unbuffered, pH>9) is added per well. The plate is incubated at room temperature for at least 5 min and then the absorbance is read on an ELISA plate reader at 564 nm.
# (§3) To determine the in vitro sensitivity profile of T7 cells to ingenol mebutate treatment, a dose-response is generated by using the SRB stain to monitor cellular protein. Cells are seeded at high density and treated with ingenol mebutate (0.232-232 μM) for 48 h. The plates are fixed and are stained with SRB. […]
# (§4) Cells are treated with 0.232-232 μM of ingenol mebutate. […] After 2 days, total protein is determined using SRB staining. […]
# T7 cells = assay: In vitro cytotoxicity assay (SRB); assay type: cell-based, murine; details: 48 h, DMSO
# Method: as §1, §2, §3, §4
# UV-13.1 = assay: In vitro cytotoxicity assay (SRB); assay type: cell-based, murine; details: 48 h, DMSO
# Method: as §1, §2, §3, §4
# T7 tumours = assay: Challenge of ingenol mebutate cured mice with T7 cells; assay type: in vivo, SKH1/hr mice; details: challenge 110 or 159 days after cure with 0.25% topical
# Method: To determine if cure of primary T7 tumours in inbred SKH1/hr mice would protect mice from subsequent challenge with the same tumour, T7 cells were injected s.c. in female SKH1/hr mice that had primary T7 tumours previously cured by topical treatment with 0.25% ingenol mebutate. There were 2 groups of mice, mice that had primary tumours cured by ingenol mebutate 110 (group 1) and 159 (group 2) days prior to challenge. Included in the study was a control group that had not previously received T7 or ingenol mebutate treatment. Tumour growth is monitored over time. Mice are culled when tumours reached 100 mm^2.
# Mice are inoculated s.c. with 2×10^4 T7 cells 110 (Day 110) or 159 (Day 159) days post last treatment of primary tumour with ingenol mebutate. Tumour growth is monitored over time. Mice are sacrificed when tumour reached 100 mm^2. Survival curves are generated by assigning a death event when tumours reached 100 mm^2. Control mice had neither prior T7 nor ingenol mebutate treatment.
# UVB-damaged skin = assay: Skin appearance and histology after treatment of UVB-damaged skin; assay type: in vivo, SKH1/hr mice
# Method: For histological studies samples were fixed in 10% formalin and processed for paraffin embedding at the indicated times after ingenol mebutate treatment. Paraffin sections were stained with haematoxylin and eosin (H&E), or toluidine blue using standard protocols.
# (§5) Three days after the last dose of UVB irradiation, an about 4 cm^2 dorsal area was topically treated daily for 2 days with 40 μl of 0.05% PEP005 gel or placebo gel. The treatment area was demarcated by a tattoo. Mice were culled 6 h (6 h) and 24 h (Day 1) after the first dose of 0.05% PEP005 gel and 24 h after the second dose of 0.05% PEP005 gel or placebo gel (Day 2). The samples were fixed in 10% formalin and processed by QIMR histology for paraffin embedding. Paraffin sections were stained with haematoxylin and eosin (H&E), Leder stain or toludine blue by QIMR Histotechnology, in accordance with standard protocols.
# To identify the histological changes after 0.05% PEP005 gel treatment, skin was examined at different times after treatment; 6 h after the first dose was applied (6 h), 24 h after the first dose was applied (Day 1), and 24 h after the second dose was applied (Day 2). Placebo treated mice were treated with equivalent volumes of placebo gel and the skin examined 24 h after the second dose.
# as §5, with “a ˜4 cm2” for “an about 4 cm^2”
# Three days after the last dose of UVB irradiation, a ˜4 cm^2 dorsal area is topically treated daily for 2 days with 40 μl of 0.05% PEP005 gel or placebo gel. The treatment area is demarcated by a tattoo. […]
compound,measurement,setting,value
C/C=C(/C)C(=O)O[C@H]1C(C)=C[C@]23C(=O)[C@@H](C=C(CO)[C@@H](O)[C@]12O)[C@H]1[C@@H](C[C@H]3C)C1(C)C [ingenol mebutate],90% lethal dose (LD90),B16,100 to 110 µM
same,90% lethal dose (LD90),T7 cells,100 to 110 µM
same,90% lethal dose (LD90),UV-13.1,100 to 110 µM
same,protection against subsequent T7 challenge,T7 tumours,no protective effect
same,haemorrhage in treated skin,UVB-damaged skin; 24-48 h after treatment initiation,widespread haemorrhage
same,mast cells (toluidine blue staining),UVB-damaged skin; 24 h,few toluidine blue staining cells could be seen
same,reduction of mean skin area within the tattooed treatment area,"UVB-damaged skin; after healing up to 20-21 weeks, ~4 or ~10 cm2 area",about 3 fold
